{"source": "paper PMC6804253", "about": "“Predicting and Experimentally Validating Hot-Spot Residues at Protein–Protein Interfaces” (ACS Chemical Biology, 2019)", "key": {"[1]": {"system": "PPIs of the SKEMPI data set (by PDBID)", "test": "SKEMPI experimental ΔΔG, single mutations to alanine", "assay_type": "binding", "conditions": "for sk_class (class of the SKEMPI experimental ΔΔG): Positive / Neutral / Negative by ΔΔG threshold 4.184 kJ/mol, ref SKEMPI"}, "[2]": {"system": "PPIs of the SKEMPI data set (by PDBID)", "conditions": "Flex_ddG Talaris2014, 1 REU = 1 kcal/mol assumed; cited from earlier work"}, "[3]": {"system": "PPIs of the SKEMPI data set (by PDBID)", "conditions": "cited from earlier work; for sk_ddG_kJ: experimental ΔΔG of single mutation to alanine, SKEMPI database; for sk_ddG_kJ (SKEMPI experimental ΔΔG of binding, mutation to alanine): single mutation to alanine in the complex of the given PDBID"}, "[4]": {"system": "PPIs of the SKEMPI data set (by PDBID)", "conditions": "Flex_ddG Ref2015, 1 REU = 1 kcal/mol assumed; cited from earlier work"}, "[5]": {"conditions": "class of the experimental SKEMPI ΔΔG"}}}
{"substance": "1A22 IA4A", "values": [{"measurement": "sk_class (class of the SKEMPI experimental ΔΔG)", "setting": "[1]", "value": "Neutral (neutral (little effect) 4.184 kJ/mol < ΔΔG > −4.184 kJ/mol)"}, {"measurement": "sk_class", "setting": "[1]; [5]", "value": "Neutral (neutral (little effect) 4.184 kJ/mol < ΔΔG > −4.184 kJ/mol)"}, {"measurement": "rosetta_ddG_kJ", "setting": "[2]", "value": -0.124, "unit": "kcal/mol"}, {"measurement": "sk_ddG_kJ", "setting": "[3]", "value": 0.411, "unit": "kcal/mol"}, {"measurement": "sk_ddG_kJ (SKEMPI experimental ΔΔG of binding, mutation to alanine)", "setting": "[3]; ref SKEMPI", "value": 1.72, "unit": "kJ"}, {"measurement": "ref2015_ddG_kJ", "setting": "[4]", "value": -0.201, "unit": "kcal/mol"}]}
{"substance": "1A22 LA6A", "values": [{"measurement": "sk_class (class of the SKEMPI experimental ΔΔG)", "setting": "[1]", "value": "Neutral (neutral (little effect) 4.184 kJ/mol < ΔΔG > −4.184 kJ/mol)"}, {"measurement": "sk_class", "setting": "[1]; [5]", "value": "Neutral (neutral (little effect) 4.184 kJ/mol < ΔΔG > −4.184 kJ/mol)"}, {"measurement": "rosetta_ddG_kJ", "setting": "[2]", "value": -0.0669, "unit": "kcal/mol"}, {"measurement": "sk_ddG_kJ", "setting": "[3]", "value": 0.6, "unit": "kcal/mol"}, {"measurement": "sk_ddG_kJ (SKEMPI experimental ΔΔG of binding, mutation to alanine)", "setting": "[3]; ref SKEMPI", "value": 2.51, "unit": "kJ"}, {"measurement": "ref2015_ddG_kJ", "setting": "[4]", "value": -0.184, "unit": "kcal/mol"}]}
{"substance": "1A22 PA5A", "values": [{"measurement": "sk_class", "setting": "[1]; [5]", "value": "Neutral (neutral (little effect) 4.184 kJ/mol < ΔΔG > −4.184 kJ/mol)"}, {"measurement": "rosetta_ddG_kJ", "setting": "[2]", "value": 0.146, "unit": "kcal/mol"}, {"measurement": "sk_class (class of SKEMPI experimental ΔΔG)", "setting": "[3]; class by ΔΔG threshold 4.184 kJ/mol, ref SKEMPI", "value": "Neutral (neutral (little effect) 4.184 kJ/mol < ΔΔG > −4.184 kJ/mol)"}, {"measurement": "sk_ddG_kJ", "setting": "[3]", "value": 0.43, "unit": "kcal/mol"}, {"measurement": "sk_ddG_kJ (SKEMPI experimental ΔΔG, mutation to alanine)", "setting": "[3]; single mutation to alanine, complex given by PDBID, residue group in r_group, ref SKEMPI", "value": 1.80, "unit": "kJ"}, {"measurement": "ref2015_ddG_kJ", "setting": "[4]", "value": 0.0406, "unit": "kcal/mol"}]}
{"substance": "1A22 TA3A", "values": [{"measurement": "sk_class", "setting": "[1]; class of the SKEMPI experimental ΔΔG", "value": "Neutral (neutral (little effect) 4.184 kJ/mol < ΔΔG > −4.184 kJ/mol)"}, {"measurement": "sk_class", "setting": "[1]; [5]", "value": "Neutral (neutral (little effect) 4.184 kJ/mol < ΔΔG > −4.184 kJ/mol)"}, {"measurement": "rosetta_ddG_kJ", "setting": "[2]", "value": -0.0406, "unit": "kcal/mol"}, {"measurement": "sk_ddG_kJ", "setting": "[3]", "value": -0.0502, "unit": "kcal/mol"}, {"measurement": "sk_ddG_kJ (SKEMPI experimental ΔΔG)", "setting": "[3]; single mutation to alanine, complex given by PDBID, mutation by mut_pdb, ref SKEMPI", "value": -0.21, "unit": "kJ"}, {"measurement": "ref2015_ddG_kJ", "setting": "[4]", "value": 0.0717, "unit": "kcal/mol"}]}
